The record followed here is ChEMBL document CHEMBL5120783, “Procyanidins and Phlobatannins from the Twigs of Rosa multiflora and Their Neuroprotective Activity” (J Nat Prod, 2022).

For data set [1], the system named is BV-2. Put plainly: Anti-neuroinflammatory activity in mouse BV-2 cells assessed as inhibition of LPS-induced NO production. In kind it is functional, cell-based.
Data set [2] is described as follows: Cytotoxicity against mouse BV-2 cells assessed as cell viability at 25 uM by MTT assay. The data set is classed as toxicity, cell-based. Particulars: read-out: Activity.
The test system of data set [3] is C6. Put plainly: Neuroprotective activity in rat C6 cells assessed as NGF secretion level at 25 uM measured after 24 hrs by ELISA. In kind it is functional. In general terms: ELISA stands for enzyme-linked immunosorbent assay.
Data set [4] can be described thus: Cytotoxicity against rat C6 cells assessed as cell viability at 25 uM by MTT assay. The data set is classed as toxicity, cell-based. Particulars: read-out: Activity. For orientation: Tetrazolium assays rely on reduction of a dye to a coloured formazan, in cell work by metabolically active cells.

With `COc1cc([C@@H]2Oc3cc(CCCO)cc(O)c3O[C@H]2CO)ccc1O`, the IC50 in data set [1] was 36.9 µM. In addition, the viability at 25 µM in data set [2] worked out at 92.4%.

Take `OC[C@H]1O[C@@H](O[C@H]2c3ccc(O)cc3O[C@@H](c3ccc(O)cc3)[C@@H]2O)[C@H](O)[C@@H](O)[C@@H]1O`: the IC50 in data set [1] is 51.5 µM. Besides, the figures for the viability at 25 µM in data set [2] and in data set [4] were 98.9% and 102%, respectively. For the same compound, the Activity in data set [3] is 103.8%.

Take `COc1cc([C@@H]2Oc3cc(CCCO)cc(O)c3O[C@H]2CO)ccc1O[C@@H]1O[C@H](CO)[C@@H](O)[C@H](O)[C@H]1O`: the IC50 in data set [1] was found to be 50.6 µM. Besides, the viability at 25 µM in data set [2] is 95.9%; in data set [4] it was 99.2%. Moreover, the Activity in data set [3] turned out to be 107.6%.

In the case of `CCCCC/C=C/C(=O)CCc1ccc(O)c(OC)c1` [SHOGAOL], the Activity in data set [3] is 118.5%. For the same compound, the viability at 25 µM in data set [4] is 116%.

Take `CNC(=N)NCCC[C@H](N)C(=O)O` [TILARGININE]: the IC50 in data set [1] stood at 27.2 µM. In addition, the viability at 25 µM in data set [2] was found to be 104%.

For orientation: IC50 means the concentration that gives 50% inhibition.
